Data published in BigSolDB 2.1.

CC(=O)N(CC(O)CO)c1c(I)c(C(=O)NCC(O)CO)c(I)c(C(=O)NCC(O)CO)c1I (stereo not given)
solubility (mole fraction)
Settings	283.15 K	288.15 K	293.15 K	298.15 K	303.15 K	308.15 K	313.15 K	318.15 K	323.15 K
in 1,4-dioxane	–	5.7e-05	6.9e-05	8.3e-05	0.0001	0.000121	0.000145	0.000174	0.000208
in 2-butanone	0.000148	0.000178	0.000211	0.000255	0.000301	0.000358	0.000425	0.00049	0.000566
in DMSO	–	–	0.000293	0.000357	0.000428	0.00051	0.000624	0.000737	0.000869
in acetone	0.000174	0.000209	0.000256	0.000308	0.000371	0.000443	0.000526	0.00062	0.000741
in acetonitrile	8.47e-05	0.000101	0.000123	0.000146	0.000175	0.00021	0.00025	0.000298	0.000354
in cyclohexane	9.38e-06	1.22e-05	1.55e-05	2e-05	2.51e-05	3.14e-05	3.89e-05	4.81e-05	5.96e-05
in ethanol	0.00113	0.0013	0.00148	0.00169	0.00192	0.00217	0.00244	0.00274	0.00306
in ethyl acetate	0.000126	0.00015	0.00018	0.000215	0.000256	0.000301	0.000355	0.000414	0.000481
in isopropanol	0.000389	0.000456	0.000555	0.000674	0.000806	0.000966	0.00115	0.00137	0.00165
in n-butanol	0.000235	0.000287	0.000342	0.000416	0.0005	0.000601	0.000723	0.000866	0.00103
in n-propanol	0.000715	0.000804	0.000911	0.00104	0.00119	0.00137	0.00156	0.00181	0.0021
in toluene	2.5e-05	3.22e-05	4.06e-05	5.12e-05	6.28e-05	7.57e-05	9.19e-05	0.000112	0.000134
